Results as given in ChEMBL document CHEMBL1201862, “PubChem BioAssay data set” (2004).
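Exposure lasted 48 hours, with cells grown in 96-well plates and compounds tested at five concentrations. GI50: concentration for 50% inhibition of growth.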 Calls of active or inactive are those of the source. No stated cut-off is given here; in the data, active = GI50 up to about 1.1 µM and inactive = higher.

Tests used:
Assay in all cases: NCI-60 cell line screen, 48 h
XF498 = test system: XF498
LXFL 529 = test system: LXFL 529
DU-145 = test system: DU-145
T47D = test system: T47D
BT-549 = test system: BT-549

Compound: O=c1ccn([C@@H]2C=C(CO)[C@@H](O)[C@H]2O)c(=O)[nH]1
- GI50 (XF498): < 0.0625 µM (active)

Compound: COc1ccc(/C=c2\sc3n(c2=O)CCN=3)cc1
- GI50 (LXFL 529): > 100 µM (inactive)

Compound: NCCCN(CCCN)CCN(CCN(CCCN)CCCN)CCN(CCCN)CCCN
- GI50 (DU-145): > 100 µM (inactive)
- GI50 (T47D): 58.3 µM (inactive)

Compound: c1ccc(-n2cnnc2-c2nsc3ccccc23)cc1
- GI50 (LXFL 529): > 100 µM (inactive)

Compound: C[C@H]1O[C@@H](O[C@H]2[C@@H](O)C[C@H](O[C@H]3[C@@H](O)C[C@H](O[C@H]4CC[C@@]5(C)[C@H](CC[C@@H]6[C@@H]5CC[C@]5(C)[C@@H](C7=CC(=O)OC7)CC[C@]65O)C4)O[C@@H]3C)O[C@@H]2C)C[C@H](O)[C@@H]1O [DIGITOXIN]
- GI50 (BT-549): 0.0189 µM (active)
